# Laboratory results as given in patent US20020137929A1, “1 - (3-heterocyclylphenyl) isothiourea, -isourea, -guanidine and -amidine herbicidal agents” (Intellectual Property Department, BASF Aktiengesellschaft, priority 1998, published 2002).
# Columns and labels:
# [1] = tested on: IPOHE (Morningglory, Ivyleaf); assay: Postemergence herbicidal evaluation; assay type: in vivo, Ipomoea hederacea; settings: postemergence
# Outline: (§1)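 Each compound, dispersed in an acetone/water mix (50/50) carrying 0.5% TWEEN 20, is nozzle-sprayed at 40 psi on approximately two-week-old seedlings at about 0.0156–0.500 kg/ha. Plants are assessed 4–5 weeks afterward on a 0–9 scale relative to control; duplicate tests are averaged.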
# ECHCG (Barnyardgrass) = assay: Preemergence herbicidal evaluation; assay type: in vivo, Echinochloa crus-galli; settings: rated 4-5 weeks after treatment, rating scale 0-9
# Outline: (§2)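 Seeds were mixed with potting soil and planted on about one inch of soil, then sprayed with test compound in aqueous acetone at about 0.0156 to 0.500 kg per hectare. Plants grew under standard greenhouse care and were visually rated 0-9 against untreated controls 4-5 weeks post-treatment.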
# [2] = tested on: SAGPY (Arrowhead (Pygmaea)); assay: Preemergence weed control under flooded paddy conditions; assay type: in vivo, Sagittaria pygmaea; settings: rated 3-4 weeks after treatment
# Outline: (§3)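 Values are visual 0-9 scores against a control for a preemergence application into paddy flood water at about 0.0313 to 0.500 kg/ha. Greenhouse duration was three to four weeks.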
# ZEAMX (Corn, Field) = assay: Postemergence herbicidal evaluation; assay type: in vivo, Zea mays; settings: postemergence
# Outline: as §1
# AMBEL (Ragweed, Common) [3] = assay: Postemergence herbicidal evaluation; assay type: in vivo, Ambrosia artemisifolia; settings: postemergence
# Outline: as §1
# ABUTH (Velvetleaf) = assay: Preemergence herbicidal evaluation; assay type: in vivo, Abutilon theophrasti; settings: rated 4-5 weeks after treatment, rating scale 0-9
# Outline: as §2
# AMBEL (Ragweed, Common) [4] = assay: Preemergence herbicidal evaluation; assay type: in vivo, Ambrosia artemisifolia; settings: rated 4-5 weeks after treatment, rating scale 0-9
# Outline: as §2
# CYPSE (Flatsedge) = assay: Preemergence weed control under flooded paddy conditions; assay type: in vivo, Cyperus serotinus; settings: rated 3-4 weeks after treatment
# Outline: as §3
# GALAP (Galium) = assay: Preemergence herbicidal evaluation; assay type: in vivo, Galium aparine; settings: rated 4-5 weeks after treatment, rating scale 0-9
# Outline: as §2
# CASOB (Sicklepod) = assay: Preemergence herbicidal evaluation; assay type: in vivo, Cassia obtusifolia; settings: rated 4-5 weeks after treatment, rating scale 0-9
# Outline: as §2
# SETVI (Foxtail, Green) = assay: Preemergence herbicidal evaluation; assay type: in vivo, Setaria viridis; settings: rated 4-5 weeks after treatment, rating scale 0-9
# Outline: as §2
# [5] = tested on: GLXMAW (Soybean, Williams); assay: Preemergence herbicidal evaluation; assay type: in vivo, Glycine max, (L.) Merr. cv Williams; settings: rated 4-5 weeks after treatment, rating scale 0-9
# Outline: as §2
# [6] = tested on: GLXMAW (Soybean, Williams); assay: Postemergence herbicidal evaluation; assay type: in vivo, Glycine max, (L.) Merr. cv Williams; settings: postemergence
# Outline: as §1
compound,measurement,setting,value
"Cn1c(C(F)(F)F)cc(=O)n(-c2cc(N=C3SCC(=O)N3Cc3ccncc3)c(Cl)cc2F)c1=O [Compound 133, 3-{4-Chloro-2-fluoro-5-{[4-oxo-3-(4-pyridylmethyl)-2-thiazolidinylidene]amino}phenyl}-1-methyl-6-(trifluoromethyl)-2,4(1H,3H)-pyrimidinedione]",Herbicidal rating IPOHE,[1]; rate 0.0156 kg/ha,9.0
same,Herbicidal rating IPOHE,[1]; rate 0.0313 kg/ha,9.0
same,Herbicidal rating IPOHE,[1]; rate 0.0625 kg/ha,9.0
same,Preemergence herbicidal rating ECHCG,ECHCG (Barnyardgrass); rate 0.0313 kg/ha,0.0
same,Preemergence herbicidal rating ECHCG,ECHCG (Barnyardgrass); rate 0.0625 kg/ha,0.0
same,Preemergence herbicidal rating ECHCG,ECHCG (Barnyardgrass); rate 0.1250 kg/ha,0.0
same,Preemergence herbicidal rating ECHCG,ECHCG (Barnyardgrass); rate 0.2500 kg/ha,0.0
same,"herbicidal effect rating, SAGPY",[2]; 0.0313 kg/ha,0.0
same,"herbicidal effect rating, SAGPY",[2]; 0.0625 kg/ha,3.0
same,"herbicidal effect rating, SAGPY",[2]; 0.1250 kg/ha,3.0
same,"herbicidal effect rating, SAGPY",[2]; 0.2500 kg/ha,3.0
same,Herbicidal rating ZEAMX,"ZEAMX (Corn, Field); rate 0.0156 kg/ha",4.0
same,Herbicidal rating ZEAMX,"ZEAMX (Corn, Field); rate 0.0313 kg/ha",4.0
same,Herbicidal rating ZEAMX,"ZEAMX (Corn, Field); rate 0.0625 kg/ha",4.0
same,Herbicidal rating AMBEL,"AMBEL (Ragweed, Common) [3]; rate 0.0156 kg/ha",9.0
same,Herbicidal rating AMBEL,"AMBEL (Ragweed, Common) [3]; rate 0.0313 kg/ha",6.0
same,Herbicidal rating AMBEL,"AMBEL (Ragweed, Common) [3]; rate 0.0625 kg/ha",9.0
same,Preemergence herbicidal rating ABUTH,ABUTH (Velvetleaf); rate 0.0313 kg/ha,0.0
same,Preemergence herbicidal rating ABUTH,ABUTH (Velvetleaf); rate 0.0625 kg/ha,0.0
same,Preemergence herbicidal rating ABUTH,ABUTH (Velvetleaf); rate 0.1250 kg/ha,1.0
same,Preemergence herbicidal rating ABUTH,ABUTH (Velvetleaf); rate 0.2500 kg/ha,5.0
same,Preemergence herbicidal rating AMBEL,"AMBEL (Ragweed, Common) [4]; rate 0.0313 kg/ha",0.0
same,Preemergence herbicidal rating AMBEL,"AMBEL (Ragweed, Common) [4]; rate 0.0625 kg/ha",0.0
same,Preemergence herbicidal rating AMBEL,"AMBEL (Ragweed, Common) [4]; rate 0.1250 kg/ha",0.0
same,Preemergence herbicidal rating AMBEL,"AMBEL (Ragweed, Common) [4]; rate 0.2500 kg/ha",1.0
same,"herbicidal effect rating, CYPSE",CYPSE (Flatsedge); 0.0313 kg/ha,0.0
same,"herbicidal effect rating, CYPSE",CYPSE (Flatsedge); 0.0625 kg/ha,0.0
same,"herbicidal effect rating, CYPSE",CYPSE (Flatsedge); 0.1250 kg/ha,0.0
same,"herbicidal effect rating, CYPSE",CYPSE (Flatsedge); 0.2500 kg/ha,1.0
same,Preemergence herbicidal rating GALAP,GALAP (Galium); rate 0.0313 kg/ha,0.0
same,Preemergence herbicidal rating GALAP,GALAP (Galium); rate 0.0625 kg/ha,0.0
same,Preemergence herbicidal rating GALAP,GALAP (Galium); rate 0.1250 kg/ha,0.0
same,Preemergence herbicidal rating GALAP,GALAP (Galium); rate 0.2500 kg/ha,0.0
same,Preemergence herbicidal rating CASOB,CASOB (Sicklepod); rate 0.0313 kg/ha,0.0
same,Preemergence herbicidal rating CASOB,CASOB (Sicklepod); rate 0.0625 kg/ha,0.0
same,Preemergence herbicidal rating CASOB,CASOB (Sicklepod); rate 0.1250 kg/ha,0.0
same,Preemergence herbicidal rating CASOB,CASOB (Sicklepod); rate 0.2500 kg/ha,9.0
same,Preemergence herbicidal rating SETVI,"SETVI (Foxtail, Green); rate 0.0313 kg/ha",0.0
same,Preemergence herbicidal rating SETVI,"SETVI (Foxtail, Green); rate 0.0625 kg/ha",0.0
same,Preemergence herbicidal rating SETVI,"SETVI (Foxtail, Green); rate 0.1250 kg/ha",0.0
same,Preemergence herbicidal rating SETVI,"SETVI (Foxtail, Green); rate 0.2500 kg/ha",0.0
same,Preemergence herbicidal rating GLXMAW,[5]; rate 0.0313 kg/ha,0.0
same,Preemergence herbicidal rating GLXMAW,[5]; rate 0.0625 kg/ha,0.0
same,Preemergence herbicidal rating GLXMAW,[5]; rate 0.1250 kg/ha,0.0
same,Preemergence herbicidal rating GLXMAW,[5]; rate 0.2500 kg/ha,0.0
same,Herbicidal rating GLXMAW,[6]; rate 0.0156 kg/ha,5.0
same,Herbicidal rating GLXMAW,[6]; rate 0.0313 kg/ha,5.0
same,Herbicidal rating GLXMAW,[6]; rate 0.0625 kg/ha,5.0
"CCOC(=O)CN1C(=O)C(Br)SC1=Nc1cc(-n2c(=O)cc(C(F)(F)F)n(C)c2=O)c(F)cc1Cl (centres unmarked) [Compound 153, Ethyl 5-bromo-2-[{2-chloro-5-[3,6-dihydro-3-methyl-2,6-dioxo-4-(trifluoromethyl)-1(2H)-pyrimidinyl]-4-fluorophenyl}imino}-4-oxo-3-thiazolidineacetate]",Herbicidal rating IPOHE,[1]; rate 0.0156 kg/ha,4.0
same,Herbicidal rating IPOHE,[1]; rate 0.0313 kg/ha,6.0
same,Herbicidal rating IPOHE,[1]; rate 0.0625 kg/ha,9.0
same,Preemergence herbicidal rating ECHCG,ECHCG (Barnyardgrass); rate 0.1250 kg/ha,0.0
same,Preemergence herbicidal rating ECHCG,ECHCG (Barnyardgrass); rate 0.2500 kg/ha,0.0
same,"herbicidal effect rating, SAGPY",[2]; 0.0625 kg/ha,0.0
same,"herbicidal effect rating, SAGPY",[2]; 0.1250 kg/ha,0.0
same,"herbicidal effect rating, SAGPY",[2]; 0.2500 kg/ha,0.0
same,Herbicidal rating ZEAMX,"ZEAMX (Corn, Field); rate 0.0156 kg/ha",3.0
same,Herbicidal rating ZEAMX,"ZEAMX (Corn, Field); rate 0.0313 kg/ha",3.5
same,Herbicidal rating ZEAMX,"ZEAMX (Corn, Field); rate 0.0625 kg/ha",4.5
same,Herbicidal rating AMBEL,"AMBEL (Ragweed, Common) [3]; rate 0.0156 kg/ha",0.0
same,Herbicidal rating AMBEL,"AMBEL (Ragweed, Common) [3]; rate 0.0313 kg/ha",1.0
same,Herbicidal rating AMBEL,"AMBEL (Ragweed, Common) [3]; rate 0.0625 kg/ha",1.0
same,Preemergence herbicidal rating ABUTH,ABUTH (Velvetleaf); rate 0.1250 kg/ha,0.0
same,Preemergence herbicidal rating ABUTH,ABUTH (Velvetleaf); rate 0.2500 kg/ha,2.0
same,Preemergence herbicidal rating AMBEL,"AMBEL (Ragweed, Common) [4]; rate 0.1250 kg/ha",0.0
same,Preemergence herbicidal rating AMBEL,"AMBEL (Ragweed, Common) [4]; rate 0.2500 kg/ha",1.0
same,"herbicidal effect rating, CYPSE",CYPSE (Flatsedge); 0.0625 kg/ha,0.0
same,"herbicidal effect rating, CYPSE",CYPSE (Flatsedge); 0.1250 kg/ha,0.0
same,"herbicidal effect rating, CYPSE",CYPSE (Flatsedge); 0.2500 kg/ha,0.0
same,Preemergence herbicidal rating GALAP,GALAP (Galium); rate 0.1250 kg/ha,0.0
same,Preemergence herbicidal rating GALAP,GALAP (Galium); rate 0.2500 kg/ha,1.0
same,Preemergence herbicidal rating CASOB,CASOB (Sicklepod); rate 0.1250 kg/ha,0.0
same,Preemergence herbicidal rating CASOB,CASOB (Sicklepod); rate 0.2500 kg/ha,0.0
same,Preemergence herbicidal rating SETVI,"SETVI (Foxtail, Green); rate 0.1250 kg/ha",1.0
same,Preemergence herbicidal rating SETVI,"SETVI (Foxtail, Green); rate 0.2500 kg/ha",0.0
same,Preemergence herbicidal rating GLXMAW,[5]; rate 0.1250 kg/ha,0.0
same,Preemergence herbicidal rating GLXMAW,[5]; rate 0.2500 kg/ha,1.0
same,Herbicidal rating GLXMAW,[6]; rate 0.0156 kg/ha,3.5
same,Herbicidal rating GLXMAW,[6]; rate 0.0313 kg/ha,4.0
same,Herbicidal rating GLXMAW,[6]; rate 0.0625 kg/ha,4.0
